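Cells were grown in 96-well plates and exposed to each compound for 48 hours at five concentrations; endpoints were interpolated linearly between bracketing concentrations, or set to the highest concentration if not reached. The concentration for 50% growth inhibition is given as GI50.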 Active and inactive are the calls of the source. Cut-off read from the data, not from the text of the source: active = GI50 up to about 1.1 µM and inactive = higher.

What all share (experiment): growth of human tumour cells (NCI), 48 h
Test [1] concerns 786-0.
Test [2] deals with ACHN.
The subject of test [3] is CAKI-1.
In test [4] the test system is CCRF-CEM.
Test [5] concerns EKVX.
For test [6], the system named is HCT-116.
For test [7], the system named is HT-29.
In test [8] the test system is IGROV-1.
The subject of test [9] is M14.
Test [10] has as its system Malme-3M.
Test [11] relates to NCI-H226.
The test system of test [12] is NCI-H23.
The subject of test [13] is NCI-H522.
Test [14] deals with OVCAR-3.
Test [15] has as its system OVCAR-4.
Test [16] has as its system SF-539.
For test [17], the system named is SNB-19.
Test [18] concerns SNB-75.
Test [19] deals with SR.
Test [20] deals with UACC-257.

With `O=C1C[C@@H](Sc2ccccc2)C2(OCCO2)C2ON3CCCC[C@H]3[C@H]12` (some centres undefined), the GI50 is 3.53 µM (inactive) in test [1]; 2.49 µM (inactive) in [2]; 7.71 µM (inactive) in test [3]; 0.92 µM (active) in [4]; 10.8 µM (inactive) in test [5]; 4.33 µM (inactive) in [6]. The GI50 was 4.75 µM (inactive) in test [7]; 5.48 µM (inactive) in test [8]; 10.7 µM (inactive) in test [9]; 8.41 µM (inactive) in test [10]; 13.8 µM (inactive) in test [11]; 9.38 µM (inactive) in [12]. The GI50 in [13] was 2.15 µM (inactive); in [14] it was 13 µM (inactive); in [15] it was 7.73 µM (inactive); in test [16], 1.94 µM (inactive); in test [17], 10.5 µM (inactive); in test [18] it was 12.4 µM (inactive). Besides, the GI50 in test [19] is 0.927 µM (active); in [20], 14.2 µM (inactive).
Consider `Nc1ccc(Cc2ccc(N)c(C(=O)O)c2)cc1C(=O)O`, for which the GI50 in [1], in test [2], in test [3], in [4], in [5] and in test [6] was > 100 µM (inactive) in each case. For the same molecule, the GI50 in [7], in test [8], in [9], in test [10], in [11] and in [12] was > 100 µM (inactive) throughout. For the same molecule, the GI50 in test [13], in test [14], in test [15], in test [16], in [17] and in test [18] was > 100 µM (inactive) each time. Further, the GI50 in [19] and in test [20] was > 100 µM (inactive) throughout.
Regarding `O=P1(NCCCl)OCCCN1CCCl` (centres undefined) [IFOSFAMIDE], the GI50 is > 428 µM (inactive) in test [1]; > 479 µM (inactive) in test [2]; 287 µM (inactive) in test [3]; 207 µM (inactive) in [4]; 352 µM (inactive) in test [5]; 401 µM (inactive) in test [6]. Further, the GI50 in test [7] was 406 µM (inactive); in test [8], 433 µM (inactive); in test [9] it was > 467 µM (inactive); in test [10], 330 µM (inactive); in test [11], 393 µM (inactive); in test [12], 417 µM (inactive). The GI50 in test [13] was 300 µM (inactive); in test [14], 365 µM (inactive); in test [15] it was 415 µM (inactive); in [16] it was 355 µM (inactive); in test [17] it was 361 µM (inactive); in [18] it was 334 µM (inactive). Moreover, the GI50 in test [19] was > 500 µM (inactive); in test [20], 345 µM (inactive).
Regarding `CCN(CC)CCCNc1ccc2ncn3c4ccc(O)cc4c(=O)c1c23`, the GI50 in [1] is 0.643 µM (active); in [2], 0.272 µM (active); in test [3], 0.365 µM (active); in test [4] it was 0.166 µM (active); in test [5], 7.41 µM (inactive); in test [6] it was 0.441 µM (active). Besides, the GI50 in test [7] was 0.649 µM (active); in [8], 1.39 µM (inactive); in [9] it was 3.3 µM (inactive); in test [10], 4.78 µM (inactive); in test [11], 0.214 µM (active); in [12], 2.19 µM (inactive). Further, the GI50 was 0.851 µM (active) in test [13]; 8.69 µM (inactive) in test [14]; 1.01 µM (active) in test [15]; 2.9 µM (inactive) in test [16]; 2.21 µM (inactive) in [17]; 0.871 µM (active) in test [18]. The figures for the GI50 in [19] and in test [20] were 0.171 µM (active) and 11.5 µM (inactive), respectively.
On to `COc1ccc2nc3ccccc3c(NCCCN(C)CCCl)c2c1`, for which the GI50 in test [1] was 0.104 µM (active); in test [2] it was 0.105 µM (active); in test [3], 0.231 µM (active); in [4] it was 0.064 µM (active); in test [5] it was 0.938 µM (active); in test [6], 0.0877 µM (active). Further, the GI50 in [7] was 0.0998 µM (active); in [8], 0.328 µM (active); in test [9], 0.453 µM (active); in [10] it was 0.449 µM (active); in test [11], 0.226 µM (active); in [12], 0.135 µM (active). Besides, the GI50 was 0.101 µM (active) in test [13]; 0.682 µM (active) in test [14]; 0.324 µM (active) in [15]; 0.249 µM (active) in test [16]; 0.601 µM (active) in test [17]; 0.224 µM (active) in [18]. Further, the GI50 is < 0.0128 µM (active) in test [19] and 0.644 µM (active) in test [20].
As for `CC1(C)OC(=O)C(=C2CC(c3ccccc3)c3ccccc32)C(=O)O1` (centres undefined), the GI50 in test [1], in test [2], in [3], in [4], in test [5] and in [6] was > 100 µM (inactive) in each case. The GI50 in test [7], in [8], in test [9], in test [10], in test [11] and in test [12] was > 100 µM (inactive) each time. Also, the GI50 in [13], in [14], in [15], in test [16], in test [17] and in [18] was > 100 µM (inactive) throughout. The GI50 in test [19] and in [20] was > 100 µM (inactive) in each case.
For the molecule `O=C1CCCCC1CN1CCCCC1` (centres undefined), the GI50 in test [1], in test [2], in test [3], in test [4], in test [5] and in [6] was > 100 µM (inactive) throughout. Moreover, the GI50 in test [7], in test [8], in test [9], in test [10], in test [11] and in [12] was > 100 µM (inactive) in each case. In addition, the GI50 in test [13] was 1.91 µM (inactive); in test [14] it was > 100 µM (inactive); in test [15] it was > 100 µM (inactive); in test [16], > 100 µM (inactive); in [17] it was > 100 µM (inactive); in [18], > 100 µM (inactive). For the same molecule, in test [19], the GI50 was 8.89 µM (inactive).

For the origin of these results see ChEMBL document CHEMBL1201862, “PubChem BioAssay data set” (2004).
